Where a name gives a salt, the structure may show the parent alone.
Target: SMARCA2 (Homo sapiens, UniProt P51531)
Experiment: MSD SMARCA2 degradation in NCI-H1299 cell line (24 h)
Type: cell-based
Parameters: HC: NCI-H1299 cells treated with DMSO; host or cells: NCI-H1299
Conditions: for DC50: NCI-H1299 cells, read-out: SMARCA2 MSD H1299 degradation 24 h: External Abs-DC50; for Dmax: NCI-H1299, NCI-H1299 cells
Summary of the method: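 NCI-H1299 cells treated 24 h with a 3-fold, 9-point compound dilution series, then lysed in RIPA with protease inhibitor. SMARCA2 in lysate-coated MSD plates detected with rabbit anti-SMARCA2 (0.3 ug/ml) and SULFO-TAG secondary. Relative SMARCA2 level normalized between DMSO-treated H1299 cells and SMARCA2-negative A2780 cells; Dmax % binned A–D.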

Chain of SMARCA2 (P51531 whole entry): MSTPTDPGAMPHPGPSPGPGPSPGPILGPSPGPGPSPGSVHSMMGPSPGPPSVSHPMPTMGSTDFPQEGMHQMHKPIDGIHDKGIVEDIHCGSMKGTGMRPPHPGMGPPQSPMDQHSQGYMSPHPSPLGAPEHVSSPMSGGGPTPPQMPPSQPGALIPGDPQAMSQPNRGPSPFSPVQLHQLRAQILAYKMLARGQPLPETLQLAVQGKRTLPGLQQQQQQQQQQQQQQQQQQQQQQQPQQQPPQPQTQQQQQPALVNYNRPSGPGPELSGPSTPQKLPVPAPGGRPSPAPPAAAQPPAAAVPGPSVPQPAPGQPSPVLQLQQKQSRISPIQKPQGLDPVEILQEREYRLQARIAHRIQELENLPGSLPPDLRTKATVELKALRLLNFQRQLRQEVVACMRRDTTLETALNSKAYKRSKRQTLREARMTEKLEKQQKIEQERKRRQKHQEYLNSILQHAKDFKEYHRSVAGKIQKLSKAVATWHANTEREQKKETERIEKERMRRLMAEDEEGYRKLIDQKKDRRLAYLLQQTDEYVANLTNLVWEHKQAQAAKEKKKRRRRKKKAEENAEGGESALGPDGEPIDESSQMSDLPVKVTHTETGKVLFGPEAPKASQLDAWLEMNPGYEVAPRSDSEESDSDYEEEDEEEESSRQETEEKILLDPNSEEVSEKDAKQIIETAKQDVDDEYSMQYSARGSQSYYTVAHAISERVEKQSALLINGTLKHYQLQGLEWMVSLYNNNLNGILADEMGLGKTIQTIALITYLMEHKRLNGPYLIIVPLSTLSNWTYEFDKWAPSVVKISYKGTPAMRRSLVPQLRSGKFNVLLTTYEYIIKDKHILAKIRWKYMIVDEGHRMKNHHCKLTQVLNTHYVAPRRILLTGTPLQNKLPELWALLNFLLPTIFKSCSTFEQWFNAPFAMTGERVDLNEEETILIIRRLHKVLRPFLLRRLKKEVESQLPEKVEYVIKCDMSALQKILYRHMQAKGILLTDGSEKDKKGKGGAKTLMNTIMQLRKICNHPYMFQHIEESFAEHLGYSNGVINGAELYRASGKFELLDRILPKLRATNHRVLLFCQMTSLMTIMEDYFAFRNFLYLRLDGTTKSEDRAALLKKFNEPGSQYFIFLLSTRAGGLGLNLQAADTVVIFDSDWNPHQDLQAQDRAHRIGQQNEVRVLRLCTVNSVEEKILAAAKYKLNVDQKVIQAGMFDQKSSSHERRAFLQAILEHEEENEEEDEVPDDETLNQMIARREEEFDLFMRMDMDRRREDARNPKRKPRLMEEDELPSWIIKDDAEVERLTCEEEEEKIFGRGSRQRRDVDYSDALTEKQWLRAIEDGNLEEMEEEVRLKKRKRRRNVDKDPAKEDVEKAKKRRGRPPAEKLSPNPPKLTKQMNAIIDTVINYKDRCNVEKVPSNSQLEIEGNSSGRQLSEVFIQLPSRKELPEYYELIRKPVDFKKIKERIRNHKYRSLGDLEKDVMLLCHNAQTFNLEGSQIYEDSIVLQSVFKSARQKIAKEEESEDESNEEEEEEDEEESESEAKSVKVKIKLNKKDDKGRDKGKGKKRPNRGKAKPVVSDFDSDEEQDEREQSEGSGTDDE

| DC50 [µM] | Dmax [%] | SMILES |
| --- | --- | --- |
| 0.1 to 0.5 | 50 to 70 | Cn1c(=O)n(C2CCC(=O)NC2=O)c2ccc(CCCCCN3CCCC(n4cc(-c5cc(-c6ccccc6O)nnc5N)cn4)C3)cc21 (stereo not drawn) [I-179] |
| > 1 | – | CN[C@@H](C)C(=O)N[C@H](C(=O)N1Cc2cc(OCCOCCOCCNC(=O)CCCCCCCCOc3ccnc(N4C[C@H]5C[C@@H]4CN5/C=C/C(=O)c4ccccc4O)c3)ccc2C[C@H]1C(=O)N[C@@H]1CCCc2ccccc21)C(C)(C)C [I-205] |
| > 1 | – | CN[C@@H](C)C(=O)N[C@H](C(=O)N1Cc2cc(OCCOCCOCCOCCOCCNC(=O)c3ccc(C(C)n4cc(-c5cc(-c6ccccc6O)nnc5N)cn4)cc3)ccc2C[C@H]1C(=O)N[C@@H]1CCCc2ccccc21)C(C)(C)C (stereo partly drawn) [I-207] |
| 0.1 to 0.5 | 50 to 70 | Cn1c(=O)n(C2CCC(=O)NC2=O)c2ccc(CCCN3CCC(n4cc(-c5cc(-c6ccccc6O)nnc5N)cn4)CC3)cc21 (stereo not drawn) [I-182] |
| > 1 | 50 to 70 | COc1cc(C(=O)NCCCCCCCCCCCNCc2ccc(N3CCN(c4cc(-c5ccccc5O)nnc4N)CC3)cc2)ccc1NC(=O)[C@@H]1N[C@@H](CC(C)(C)C)[C@](C#N)(c2ccc(Cl)cc2F)[C@H]1c1cccc(Cl)c1F [I-234] |
| < 0.1 | 70 to 90 | Cn1c(=O)n(C2CCC(=O)NC2=O)c2cccc(CCCO[C@H]3C[C@H](N(C)Cc4ccc(N5CCN(c6cc(-c7ccccc7O)nnc6N)CC5)cc4)C3)c21 (stereo partly drawn) [I-121] |
| 0.1 to 0.5 | 70 to 90 | CN(CCCCOCCCCc1cccc2c1n(C)c(=O)n2C1CCC(=O)NC1=O)Cc1ccc(N2CCN(c3cc(-c4ccccc4O)nnc3N)CC2)cc1 (stereo not drawn) [I-119] |
| > 1 | < 50 | CN(CCOCCCc1ccc2c(c1)n(C)c(=O)n2C1CCC(=O)NC1=O)Cc1ccc(N2CCN(c3cc(-c4ccccc4O)nnc3N)CC2)cc1 (stereo not drawn) [I-125] |
| > 1 | < 50 | COc1cc(C(=O)NCCCCCNCc2ccc(N3CCN(c4cc(-c5ccccc5O)nnc4N)CC3)cc2)ccc1NC(=O)[C@@H]1N[C@@H](CC(C)(C)C)[C@](C#N)(c2ccc(Cl)cc2F)[C@H]1c1cccc(Cl)c1F [I-237] |
| < 0.1 | 70 to 90 | Cn1c(=O)n(C2CCC(=O)NC2=O)c2ccc(CN3CCCC(n4cc(-c5cc(-c6ccccc6O)nnc5N)cn4)C3)cc21 (stereo not drawn) [I-177] |
| > 1 | < 50 | Cn1c(=O)n(C2CCC(=O)NC2=O)c2ccc(CCCCCCCN3CCCC(n4cc(-c5cc(-c6ccccc6O)nnc5N)cn4)C3)cc21 (stereo not drawn) [I-180] |
| > 1 | < 50 | CN(CCCc1ccc2c(c1)n(C)c(=O)n2C1CCC(=O)NC1=O)Cc1ccc(N2CCN(c3cc(-c4ccccc4O)nnc3N)CC2)cc1 (stereo not drawn) [I-159, 3-(5-(3-((4-(4-(3-amino-6-(2-hydroxyphenyl)pyridazin-4-yl)piperazin-1-yl)benzyl)(methyl)amino)propyl)-3-methyl-2-oxo-2,3-dihydro-1H-benzo[d]imidazol-1-yl)piperidine-2,6-dione] |
| > 1 | – | COc1cc(C(=O)NCCCNCc2ccc(N3CCN(c4cc(-c5ccccc5O)nnc4N)CC3)cc2)ccc1NC(=O)[C@@H]1N[C@@H](CC(C)(C)C)[C@](C#N)(c2ccc(Cl)cc2F)[C@H]1c1cccc(Cl)c1F [I-238, (2R,3S,4R,5S)—N-(4-((3-((4-(4-(3-amino-6-(2-hydroxyphenyl)pyridazin-4-yl)piperazin-1-yl)benzyl)amino)propyl)carbamoyl)-2-methoxyphenyl)-3-(3-chloro-2-fluorophenyl)-4-(4-chloro-2-fluorophenyl)-4-cyano-5-neopentylpyrrolidine-2-carboxamide hydrochloride] |
| > 1 | < 50 | Cc1ncsc1-c1ccc(CNC(=O)[C@@H]2C[C@@H](O)CN2C(=O)[C@@H](NC(=O)CCCCCN2CCC(Cn3cc(-c4cc(-c5ccccc5O)nnc4N)cn3)CC2)C(C)(C)C)cc1 [I-215, (2S,4R)-1-((S)-2-(6-(4-((4-(3-amino-6-(2-hydroxyphenyl)pyridazin-4-yl)-1H-pyrazol-1-yl)methyl)piperidin-1-yl)hexanamido)-3,3-dimethylbutanoyl)-4-hydroxy-N-(4-(4-methylthiazol-5-yl)benzyl)pyrrolidine-2-carboxamide] |
| > 1 | < 50 | Cn1c(=O)n(C2CCC(=O)NC2=O)c2ccc(CCCCCCCCc3cccc(CN4CCN(c5cc(-c6ccccc6O)nnc5N)CC4)c3)cc21 (stereo not drawn) [I-152, 3-(5-(8-(3-((4-(3-amino-6-(2-hydroxyphenyl)pyridazin-4-yl)piperazin-1-yl)methyl)phenyl)octyl)-3-methyl-2-oxo-2,3-dihydro-1H-benzo[d]imidazol-1-yl) piperidine-2,6-dione] |
| > 1 | > 90 | Cc1ncsc1-c1ccc(CNC(=O)[C@@H]2C[C@@H](O)CN2C(=O)[C@@H](NC(=O)CCCCCCCN2CCC(Cn3cc(-c4cc(-c5ccccc5O)nnc4N)cn3)CC2)C(C)(C)C)cc1 [I-217] |
| 0.1 to 0.5 | 70 to 90 | CN(Cc1ccc(N2CCN(c3cc(-c4ccccc4O)nnc3N)CC2)cc1)C[C@@H]1CN(CCCc2cccc3c2n(C)c(=O)n3C2CCC(=O)NC2=O)CCO1 (stereo partly drawn) [I-117] |
| > 1 | 50 to 70 | Cn1c(=O)n(C2CCC(=O)NC2=O)c2ccc(CN3CC(OCCCN4CCN(Cc5ccc(-c6cc(-c7ccccc7O)nnc6N)cc5)CC4)C3)cc21 (stereo not drawn) [I-156] |

The next lines start with the compound.

| SMILES | DC50 [µM] | Dmax [%] |
| --- | --- | --- |
| CC(c1ccc(C(=O)NCCOCCOCCOCCCc2ccc3c(c2)n(C)c(=O)n3C2CCC(=O)NC2=O)cc1)n1cc(-c2cc(-c3ccccc3O)nnc2N)cn1 (stereo not drawn) [I-12] | > 1 | – |
| O=C1CCC(N2C(=O)c3cccc(OCCCCc4cn(CCCc5cccc(N6C[C@H]7C[C@@H]6CN7/C=C/C(=O)c6ccccc6O)n5)nn4)c3C2=O)C(=O)N1 (stereo partly drawn) [I-71, 2-(2,6-dioxopiperidin-3-yl)-4-(4-(1-(3-(6-((1R,4R)-5-((E)-3-(2-hydroxyphenyl)-3-oxoprop-1-en-1-yl)-2,5-diazabicyclo[2.2.1]heptan-2-yl)pyridin-2-yl)propyl)-1H-1,2,3-triazol-4-yl)butoxy)isoindoline-1,3-dione] | > 1 | < 50 |
| Cn1c(=O)n(C2CCC(=O)NC2=O)c2ccc(CCCCCCCc3cnc(N4C5CCC4CN(c4cc(-c6ccccc6O)nnc4N)C5)nc3)cc21 (stereo not drawn) [I-88] | < 0.1 | > 90 |
| Cn1c(=O)n(C2CCC(=O)NC2=O)c2ccc(CCCCc3cn(Cc4cccc(N5C[C@H]6C[C@@H]5CN6/C=C/C(=O)c5ccccc5O)n4)nn3)cc21 (stereo partly drawn) [I-44] | > 1 | < 50 |
| Cn1c(=O)n(C2CCC(=O)NC2=O)c2ccc(CCCOCCOCCNC(=O)CCCCCCCCOc3ccnc(N4C[C@H]5C[C@@H]4CN5/C=C/C(=O)c4ccccc4O)c3)cc21 (stereo partly drawn) [I-24] | > 1 | – |
| CC(c1ccc(C(=O)NCCOCCOCCOCCNc2cccc3c2C(=O)N(C2CCC(=O)NC2=O)C3=O)cc1)n1cc(-c2cc(-c3ccccc3O)nnc2N)cn1 (stereo not drawn) [I-9] | > 1 | – |
| CC(c1ccc(C(=O)NCCOCCOCCNc2cccc3c2C(=O)N(C2CCC(=O)NC2=O)C3=O)cc1)n1cc(-c2cc(-c3ccccc3O)nnc2N)cn1 (stereo not drawn) [I-15] | > 1 | – |
| Cn1c(=O)n(C2CCC(=O)NC2=O)c2ccc(CCCOCCOCCOCCOCCOCCNC(=O)CCCCCCCCOc3ccc(N4C[C@H]5C[C@@H]4CN5/C=C/C(=O)c4ccccc4O)nc3)cc21 (stereo partly drawn) [I-6] | > 1 | – |
| Cn1c(=O)n(C2CCC(=O)NC2=O)c2cccc(CCCCCCCCc3cn(Cc4cccc(N5C[C@H]6C[C@@H]5CN6/C=C/C(=O)c5ccccc5O)n4)nn3)c21 (stereo partly drawn) [I-53] | > 1 | < 50 |
| CC(c1ccc(C(=O)NCCOCCOCCOCCOCCNc2cccc3c2C(=O)N(C2CCC(=O)NC2=O)C3=O)cc1)n1cc(-c2cc(-c3ccccc3O)nnc2N)cn1 (stereo not drawn) [I-10] | > 1 | – |
| Cn1c(=O)n(C2CCC(=O)NC2=O)c2ccc(C#CCCCc3cn(Cc4cccc(N5C[C@H]6C[C@@H]5CN6/C=C/C(=O)c5ccccc5O)n4)nn3)cc21 (stereo partly drawn) [I-60] | > 1 | < 50 |
| Cn1c(=O)n(C2CCC(=O)NC2=O)c2cccc(CCCCCCOc3cccc(CN4CCN(c5cc(-c6ccccc6O)nnc5N)CC4)c3)c21 (stereo not drawn) [I-98] | 0.501 to 1 | 50 to 70 |
| Cn1c(=O)n(C2CCC(=O)NC2=O)c2ccc(CCCOCCOCCOCCNC(=O)CCCOc3cccc(N4C[C@H]5C[C@@H]4CN5/C=C/C(=O)c4ccccc4O)n3)cc21 (stereo partly drawn) [I-26] | > 1 | – |
| CN(CC[C@@H]1CN(CCCc2cccc3c2n(C)c(=O)n3C2CCC(=O)NC2=O)CCO1)Cc1ccc(N2CCN(c3cc(-c4ccccc4O)nnc3N)CC2)cc1 (stereo partly drawn) [I-111] | 0.1 to 0.5 | 70 to 90 |
| Cn1c(=O)n(C2CCC(=O)NC2=O)c2cccc(CCCCc3cn(Cc4cccc(N5C[C@H]6C[C@@H]5CN6/C=C/C(=O)c5ccccc5O)n4)nn3)c21 (stereo partly drawn) [I-49] | 0.1 to 0.5 | 70 to 90 |
| CN1C(=O)CCC(n2c(=O)n(C)c3c(CCCOCCOCCNCc4ccc(N5CCN(c6cc(-c7ccccc7O)nnc6N)CC5)cc4)cccc32)C1=O (stereo not drawn) [I-113] | > 1 | < 50 |
| Cn1c(=O)n(C2CCC(=O)NC2=O)c2cccc(C#CCCCc3cn(Cc4cccc(N5C[C@H]6C[C@@H]5CN6/C=C/C(=O)c5ccccc5O)n4)nn3)c21 (stereo partly drawn) [I-65] | > 1 | < 50 |
| Cn1c(=O)n(C2CCC(=O)NC2=O)c2ccc(CCc3cnc(N4C5CCC4CN(c4cc(-c6ccccc6O)nnc4N)C5)nc3)cc21 (stereo not drawn) [I-186, 3-[5-[2-[2-[3-[3-amino-6-(2-hydroxyphenyl)pyridazin-4-yl]-3,8-diazabicyclo[3.2.1]octan-8-yl]pyrimidin-5-yl]ethyl]-3-methyl-2-oxo-benzimidazol-1-yl]piperidine-2,6-dione] | 0.1 to 0.5 | 50 to 70 |
| O=C1CCC(n2c(=O)n(CCCCCCCc3cn(Cc4cccc(N5C[C@H]6C[C@@H]5CN6/C=C/C(=O)c5ccccc5O)n4)nn3)c3ccccc32)C(=O)N1 (stereo partly drawn) [I-57] | > 1 | < 50 |
| Cn1c(=O)n(C2CCC(=O)NC2=O)c2ccc(CNCCCCc3cn(Cc4cccc(N5C[C@H]6C[C@@H]5CN6/C=C/C(=O)c5ccccc5O)n4)nn3)cc21 (stereo partly drawn) [I-75] | > 1 | < 50 |
